# Where a name gives a salt, the structure may show the parent alone.
# Experiments:
# [1] = test system: MCF7 ESR1 Y537N mutant cells; assay: Cell proliferation assay in MCF7-ESR1 Y537N-682; format: cell-based; conditions: Homo sapiens, 168 h; MCF7-ESR1 Y537N-682, seven days; read-out: Relative IC50 MCF7 ESR1 Y537N mutant cells, cell proliferation
# Description: The purpose of the following cell proliferation assays generally is to detect whether a test compound has effects on cell proliferation.
# Seed MCF7 (purchased from ATCC HTB-22) cells at a density of 2,000 cells per well in DMEM phenol red free media 10% FBS (20 μL volume) (charcoal stripped) into a clear bottom 384-well cell culture plate. Plate MCF7-ESRY537N-682 (generated by CRISPR/Cas9 gene editing of ESr1 gene in MCF7 cells, clone #682) in DMEM media supplemented with 10% FBS, and 1% penicillin/streptomycin antibiotics at a density of 1000 cells per well. Incubate the plates at 37° C. and 5% CO2. The following day dose the cells with the test compound. Use an Echo 555 acoustic dispenser to prepare test compound serial dilutions (1:3) in a range from 60 μM to 0.003 μM. Dose the cells with the addition of 5 μL from the serial dilution plate to the cell plate, producing a final DMSO concentration of 0.2% with a final test compound concentration dose range between 20 and 0.001 μM. For the maximum point use media containing 0.2% of DMSO and for the minimum point use fulvestrant diluted at 2 μM final concentrations in the growth media containing 0.2% DMSO. After dosing with the test compound, incubate the cell plates at 37° C. and 5% CO2. […] Scan the plates with ACUMEN EXPLORER™ (Laser-scanning fluorescence microplate cytometer manufactured by TTP LABTECH LTD).
# [2] = biological target: T1, Y537N mutant ERα receptor (Homo sapiens, UniProt P03372, Y537N); assay: PRα inhibition (ERα functional antagonism) cell assay in MCF7-ESR1 Y537N 682 CRISPR cells; format: cell-based; conditions: MCF7 Y537N 682 CRISPR cells (heterozygous mutant), 72 hours; read-out: Relative IC50, PRα inhibition (ERα functional antagonism)
# T1 construct: generated by CRISPR/Cas9 gene editing of ESR1 gene in MCF7 cells, clone #682; endogenous in cells; host or cells: MCF7-ESR1 Y537N-682 (CRISPR/Cas9-edited MCF7, clone #682)
# T1 sequence (P03372 1-595 Y537N): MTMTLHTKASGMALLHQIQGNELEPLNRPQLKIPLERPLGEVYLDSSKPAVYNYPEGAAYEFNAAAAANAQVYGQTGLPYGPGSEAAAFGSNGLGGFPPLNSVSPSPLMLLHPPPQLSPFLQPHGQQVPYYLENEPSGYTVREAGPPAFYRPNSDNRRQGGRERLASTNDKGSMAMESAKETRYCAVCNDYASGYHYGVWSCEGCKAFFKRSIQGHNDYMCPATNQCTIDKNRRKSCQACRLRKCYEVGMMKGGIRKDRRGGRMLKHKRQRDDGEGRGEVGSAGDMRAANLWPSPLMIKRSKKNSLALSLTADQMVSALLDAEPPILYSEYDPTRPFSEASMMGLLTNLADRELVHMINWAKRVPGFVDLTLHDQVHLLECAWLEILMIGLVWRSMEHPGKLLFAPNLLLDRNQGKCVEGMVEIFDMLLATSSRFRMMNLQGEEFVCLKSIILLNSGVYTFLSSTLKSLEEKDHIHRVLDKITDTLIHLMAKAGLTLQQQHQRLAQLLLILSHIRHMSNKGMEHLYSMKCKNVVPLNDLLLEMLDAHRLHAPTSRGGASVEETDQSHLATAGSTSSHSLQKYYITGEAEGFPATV
# Source text: The purpose of the following PRα inhibition (ERα functional antagonism) cell assay is to determine the antagonistic activity of a test compound against the Y537N mutant ERα receptor. An antagonist in this assay is expected to block the function of the ERα receptor.
# Culture MCF7-ESR1 Y537N-682 (generated by CRISPR/Cas9 gene editing of ESR1 gene in MCF7 cells, clone #682) in DMEM media supplemented with 10% FBS and 1% penicillin/streptomycin antibiotics and plate the cells (prior to becoming 70% confluent) in 384-well flat-bottom plates at a density of 4,000 cells per well in DMEM phenol red free media 10% FBS (20 μL volume) (charcoal stripped). Incubate the cells overnight in a cell culture incubator (5% CO2, 95% relative humidity and 37° C.) and allow the cells to attach to the plate. The following day dose the cells with the test compound. Use an Echo 555 acoustic dispenser to prepare compound serial dilutions (1:3) in a range from 6 μM to 0.0003 μM. […]
# The following day wash the cells with PBS […] (2×20 μL) and incubate with secondary antibody (20 μL/well) (1:1000 dilution, Goat anti-rabbit IgM ALEXA FLUOR™ 488) in PBS 1% BSA for 105 minutes at room temperature. […] Scan the plates with ACUMEN EXPLORER™ [Laser-scanning fluorescence microplate cytometer manufactured by TTP LABTECH LTD] to measure PRα. […]
IC50 [1] [nM],IC50 [2] [nM],Compound
702 ± 389,330 ± 116,"O=S(=O)(O)Oc1ccc2c3c(cnc2c1)-c1ccc(C(F)(F)F)cc1O[C@@H]3c1ccc(OCCN2CC(CF)C2)cc1 [Example 1, [(5R)-5-[4-[2-[3-(Fluoromethyl)azetidin-1-yl]ethoxy]phenyl]-8-(trifluoromethyl)-5H-chromeno[4,3-c]quinolin-2-yl]hydrogen sulfate]"
1500 ± 966,470 ± 58,"O=C(O)[C@H]1O[C@@H](Oc2ccc3c4c(cnc3c2)-c2ccc(C(F)(F)F)cc2O[C@@H]4c2ccc(OCCN3CC(CF)C3)cc2)[C@H](O)[C@@H](O)[C@@H]1O [Example 2, (2S,3S,4S,5R,6S)-6-[[(5R)-5-[4-[2-[3-(Fluoromethyl)azetidin-1-yl]ethoxy]phenyl]-8-(trifluoromethyl)-5H-chromeno[4,3-c]quinolin-2-yl]oxy]-3,4,5-trihydroxy-tetrahydropyran-2-carboxylic acid]"
